In ChEMBL document CHEMBL1201862, “PubChem BioAssay data set” (2004):
The source made the active and inactive calls.

How the values were obtained:
Cytochrome P450 3A4 = Cytochrome P450 3A4 (Homo sapiens, UniProt P08684);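 also: CYP3A4 tested as one member of a cytochrome P450 panel screen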
Cytochrome P450 2D6 = Cytochrome P450 2D6 (Homo sapiens, UniProt P10635);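 also: CYP2D6 member of a cytochrome P450 panel assay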
[1] = target: T1, Mannose-6-phosphate isomerase (Homo sapiens, UniProt P34949); test: MPI inhibition at elevated mannose 6-phosphate – biochemical, fluorescence intensity, high mannose 6-phosphate, primary screen (AID 1220)
T1 sequence (P34949 whole entry): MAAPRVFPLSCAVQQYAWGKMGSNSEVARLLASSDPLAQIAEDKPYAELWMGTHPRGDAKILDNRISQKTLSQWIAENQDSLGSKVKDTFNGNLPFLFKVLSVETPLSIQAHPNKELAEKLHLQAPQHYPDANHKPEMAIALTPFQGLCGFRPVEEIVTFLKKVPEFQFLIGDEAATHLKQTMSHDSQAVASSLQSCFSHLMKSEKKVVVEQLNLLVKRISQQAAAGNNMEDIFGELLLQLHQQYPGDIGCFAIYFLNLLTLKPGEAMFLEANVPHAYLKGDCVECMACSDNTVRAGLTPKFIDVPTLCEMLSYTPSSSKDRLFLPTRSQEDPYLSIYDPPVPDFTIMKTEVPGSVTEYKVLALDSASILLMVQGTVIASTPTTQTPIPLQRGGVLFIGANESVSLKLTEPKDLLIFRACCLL

[2] = target: Glucose-6-phosphate 1-dehydrogenase (Homo sapiens, UniProt P11413); test: inhibition of Homo sapiens G6PD, dose series – biochemical, fluorescence, selectivity assay for P. falciparum G6PD inhibitor project, dose response (AID 504792); assay type: functional
Estrogen receptor = target: T2, Estrogen receptor (Homo sapiens, UniProt P03372);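 also: potency for inhibiting coactivator peptide recruitment to the receptor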
T2 sequence (P03372 whole entry): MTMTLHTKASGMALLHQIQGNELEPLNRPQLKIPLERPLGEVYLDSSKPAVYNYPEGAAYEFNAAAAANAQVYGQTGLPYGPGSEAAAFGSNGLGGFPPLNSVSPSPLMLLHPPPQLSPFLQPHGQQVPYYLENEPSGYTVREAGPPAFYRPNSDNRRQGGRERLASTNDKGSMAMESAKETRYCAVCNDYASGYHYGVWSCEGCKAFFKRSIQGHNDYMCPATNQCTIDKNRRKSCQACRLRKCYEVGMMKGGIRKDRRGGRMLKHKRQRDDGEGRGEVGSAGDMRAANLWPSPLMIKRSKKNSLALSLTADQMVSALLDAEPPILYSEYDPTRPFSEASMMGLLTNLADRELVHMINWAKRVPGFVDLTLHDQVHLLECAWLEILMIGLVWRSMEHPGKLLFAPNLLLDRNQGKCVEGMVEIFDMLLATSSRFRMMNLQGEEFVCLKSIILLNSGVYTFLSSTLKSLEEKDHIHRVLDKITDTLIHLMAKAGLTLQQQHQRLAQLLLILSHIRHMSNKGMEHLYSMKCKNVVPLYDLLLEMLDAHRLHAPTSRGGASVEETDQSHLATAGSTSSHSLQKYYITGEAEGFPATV

[3] = target: T3, Rac GTPase-activating protein 1 (Homo sapiens, UniProt Q9H0H5); test: blockers of MgcRacGAP-driven Rac1 GTP hydrolysis – biochemical, ADP Hunter fluorescence, primary and confirmatory, confirmation (AID 624330); assay type: functional
T3 sequence (Q9H0H5 whole entry): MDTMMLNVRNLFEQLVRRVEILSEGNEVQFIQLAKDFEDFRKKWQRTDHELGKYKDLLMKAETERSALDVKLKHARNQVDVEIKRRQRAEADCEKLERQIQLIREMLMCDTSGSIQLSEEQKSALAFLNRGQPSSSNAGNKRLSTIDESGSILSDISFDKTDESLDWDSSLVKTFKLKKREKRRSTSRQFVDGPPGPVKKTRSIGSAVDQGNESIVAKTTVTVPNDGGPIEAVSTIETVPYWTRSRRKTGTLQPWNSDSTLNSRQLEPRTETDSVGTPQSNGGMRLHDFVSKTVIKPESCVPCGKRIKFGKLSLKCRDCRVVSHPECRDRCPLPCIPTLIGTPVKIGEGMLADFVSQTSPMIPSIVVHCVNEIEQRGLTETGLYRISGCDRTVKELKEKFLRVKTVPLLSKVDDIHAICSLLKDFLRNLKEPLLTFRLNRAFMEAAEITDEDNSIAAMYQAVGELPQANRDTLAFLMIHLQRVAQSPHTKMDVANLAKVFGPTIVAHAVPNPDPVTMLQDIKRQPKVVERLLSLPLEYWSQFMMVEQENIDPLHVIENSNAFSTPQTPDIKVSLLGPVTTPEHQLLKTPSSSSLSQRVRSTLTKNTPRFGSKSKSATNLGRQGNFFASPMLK

Vero = test: cells; assay type: functional; settings: Chlorocebus sabaeus
Escherichia coli = test: microbe, parasite or virus in culture
[4] = target: Nucleotide-binding oligomerization domain-containing protein 2 (Homo sapiens, UniProt Q9HC29); test: inhibition of NOD2-driven NF-kB reporter – cell-based, luminescence, uHTS, HEK293 (AID 1566); assay type: functional
HEK293 [5] = test: inhibition of NOD1-driven NF-kB reporter – cell-based, luminescence, uHTS, primary screen (AID 1578); assay type: functional; settings: Homo sapiens
HEK293 [6] = test: cells; assay type: functional, cell-based; settings: Homo sapiens
HEK293 [7] = test: NOD2 signaling inhibitors in MDP-stimulated cells, cell-based, uHTS, luminescence (AID 2001); assay type: functional; settings: Homo sapiens
HEK293 [8] = test: cells; assay type: functional, cell-based; settings: Homo sapiens; remark: listed apart in the source
HEK293 [9] = test: cells; assay type: functional, cell-based; settings: Homo sapiens; remark: listed apart in the source
HEK293 [10] = test: cells; settings: Homo sapiens
Troponin, cardiac muscle = Troponin, cardiac muscle (Homo sapiens, UniProt P19429+P45379+P63316); test: Fluorescence-based biochemical high throughput dose response assay for activators of the calcium sensitivity of cardiac Regulated Thin Filaments (RTF). [Related pubchem assays (depositor defined):AID493008, AID493018, AID504382, AID504383]; assay type: protein-complex assay
HEK293 [11] = test: cells; settings: Homo sapiens; remark: listed apart in the source
Cytochrome P450 2C19 = Cytochrome P450 2C19 (Homo sapiens, UniProt P33261); test: Cytochrome panel assay with activity outcomes. Panel member name: p450-cyp2c19 Compounds with AC50 equal or less than 10 uM are considered active; assay type: functional; settings: read-out: AC50
Cytochrome P450 2C9 = Cytochrome P450 2C9 (Homo sapiens, UniProt P11712)
Cytochrome P450 1A2 = target: T4, Cytochrome P450 1A2 (Homo sapiens, UniProt P05177);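 also: PubChem cytochrome P450 panel assay, CYP1A2 panel member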
T4 sequence (P05177 whole entry): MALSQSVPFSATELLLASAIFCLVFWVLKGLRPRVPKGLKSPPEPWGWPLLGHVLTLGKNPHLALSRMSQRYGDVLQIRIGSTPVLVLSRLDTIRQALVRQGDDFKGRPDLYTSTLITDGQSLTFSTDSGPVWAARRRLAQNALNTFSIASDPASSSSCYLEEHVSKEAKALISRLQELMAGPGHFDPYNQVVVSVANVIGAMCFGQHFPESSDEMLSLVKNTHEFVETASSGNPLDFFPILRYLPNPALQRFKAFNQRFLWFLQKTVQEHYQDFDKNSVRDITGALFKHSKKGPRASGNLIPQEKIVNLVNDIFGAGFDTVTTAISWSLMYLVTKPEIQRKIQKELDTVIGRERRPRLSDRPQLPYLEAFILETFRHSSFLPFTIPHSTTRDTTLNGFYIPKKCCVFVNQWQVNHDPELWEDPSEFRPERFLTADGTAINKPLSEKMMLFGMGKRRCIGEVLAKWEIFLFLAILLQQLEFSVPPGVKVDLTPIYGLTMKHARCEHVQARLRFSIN

[12] = target: T5, Carboxy-terminal domain RNA polymerase II polypeptide A small phosphatase 1 (Homo sapiens, UniProt Q9GZU7); test: CTDSP1 inhibitors, concentration-response, biochemical, absorbance readout, ultra-high-throughput screen actives (AID 540297); assay type: functional
T5 sequence (Q9GZU7 whole entry): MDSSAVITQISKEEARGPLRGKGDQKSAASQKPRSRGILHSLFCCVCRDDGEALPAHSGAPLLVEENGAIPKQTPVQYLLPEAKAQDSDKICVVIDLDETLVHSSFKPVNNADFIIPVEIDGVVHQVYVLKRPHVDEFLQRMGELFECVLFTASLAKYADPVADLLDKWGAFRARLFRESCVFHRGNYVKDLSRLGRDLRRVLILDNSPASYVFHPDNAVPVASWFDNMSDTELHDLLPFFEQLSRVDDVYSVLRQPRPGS

HeLa = test: ATP-based viability loss in HeLa cells – cell-based, CellTiter-Glo luminescence, cherry-pick samples, cytotoxicity control for MITF activator project, dose response (AID 540259); assay type: functional; settings: Homo sapiens

**Q.** Which AC50 (Cytochrome P450 3A4) does the source give for Cc1ccccc1-c1cc(N(C)C)ncn1 here?
**A.** Its AC50 is “inconclusive”.

**Q.** And the AC50 (Cytochrome P450 2D6)?
**A.** Its AC50 is 39.8 µM (inconclusive).

**Q.** With C=CCOc1ccc(CNc2ccc3[nH]c(O)nc3c2)cc1OC as the compound, how does the IC50 [1] read?
**A.** The IC50 was > 50 µM (not active).

**Q.** And the IC50 [2]?
**A.** Its IC50 is 53.4 µM (inactive).

**Q.** Which AC50 (Cytochrome P450 3A4) does the source give for O=C1CC(c2ccc(F)cc2)Cc2nc(NCC3CCCO3)ncc21 (configuration not stated) here?
**A.** Its AC50 is “inconclusive”.

**Q.** What about the IC50 (Estrogen receptor) of the same compound?
**A.** Its IC50 is > 50 µM (not active).

**Q.** How did the IC50 [3] turn out when COc1cc(N)c2ncccc2c1SC was run?
**A.** The IC50 was 41.3 µM (active).

**Q.** And the IC50 [2]?
**A.** Its IC50 is > 80 µM (inactive).

**Q.** For CCNc1nc(NC(C)C)nc(NS(=O)(=O)c2ccc(Cl)cc2)n1, which IC50 [2] is on record?
**A.** Its IC50 is > 80 µM (inactive).

**Q.** For CCc1cc(-c2nnn(CCC3COCCO3)c2CC)ccc1-c1cn(Cc2ccccc2)nn1 (configuration not stated), which CC50 (Vero) is on record?
**A.** Its CC50 is 23.7 µM (active).

**Q.** CN1CCC(=NNC(=O)C(=O)Nc2cccc(Br)c2)CC1 was tested. Which AC50 (Escherichia coli) did it give?
**A.** Its AC50 is 65.2 µM (active).

**Q.** With COc1ccc(CCNC(=O)c2ccc3c(c2)N(Cc2ccccc2)CCS3)cc1OC as the compound, how does the EC50 [4] read?
**A.** Its EC50 is > 20 µM (inactive).

**Q.** What about the EC50 (HEK293 [5]) of the same compound?
**A.** Its EC50 is 6.99 µM (active).

**Q.** And the IC50 (HEK293 [6])?
**A.** Its IC50 is > 20 µM (inactive).

**Q.** What about the IC50 (HEK293 [7]) of the same compound?
**A.** The IC50 was 7.53 µM (active).

**Q.** What about the IC50 (HEK293 [8]) of the same compound?
**A.** Its IC50 is 8.65 µM (active).

**Q.** And the IC50 (HEK293 [9])?
**A.** Its IC50 is > 20 µM (inactive).

**Q.** What does the source list for C/C(NN1CCCCC1c1cccnc1)=C1/C(=O)NC(=S)N(C2CCCCC2)C1=O (configuration not stated)?
**A.** EC50 (HEK293 [10]): > 59.6 µM (inactive); EC50 (Troponin, cardiac muscle): 14.9 µM (inactive); EC50 (HEK293 [11]): > 59.6 µM (inactive)

**Q.** COc1ccc(NC(=O)c2ccc(-n3cccn3)nc2)c(OC)c1 was tested. Which AC50 (Cytochrome P450 2C19) did it give?
**A.** The AC50 was 14.1 µM (inconclusive).

**Q.** And the AC50 (Cytochrome P450 2C9)?
**A.** The AC50 was “inconclusive”.

**Q.** What about the AC50 (Cytochrome P450 1A2) of the same compound?
**A.** Its AC50 is 2.82 µM (inconclusive).

**Q.** With O=C(COC(=O)Cn1cnc2ccccc2c1=O)NCC12CC3CC(CC(C3)C1)C2 as the compound, how does the AC50 (Escherichia coli) read?
**A.** The AC50 was 32.8 µM (active).

**Q.** Which results are given for Cc1cc(C(=O)Nc2ccccc2C(=O)O)ccc1NC(=O)COc1ccccc1Cl?
**A.** EC50 [4]: 5.38 µM (active); EC50 (HEK293 [5]): > 20 µM (inactive); IC50 (HEK293 [6]): > 20 µM (inactive); IC50 (HEK293 [7]): > 20 µM (inactive); IC50 [12]: 6.31 µM (active); IC50 (HEK293 [8]): > 20 µM (inactive); IC50 (HEK293 [9]): > 20 µM (inactive)

**Q.** With COc1ccc2nc3ccccc3nc2c1 as the compound, how does the AC50 (HeLa) read?
**A.** The AC50 was 73.5 µM (active).
